SMILES strings stand for the structures.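 Results reflect a 48-hour exposure of cells in 96-well plates to compound at five concentrations. TGI is the concentration that stops growth completely.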

From PubChem BioAssay (NCI) come the findings set out here.

Some test systems named below: PC-3 prostate; HOP-62 NSCLC; ACHN renal; HL-60(TB) leukemia; NCI-H460 lung; UACC-62 melanoma; M14 melanoma; HOP-92 NSCLC; SK-MEL-2 melanoma; LOX IMVI melanoma; RXF 393 renal; 786-0 renal; UACC-257 melanoma; A498 renal; CAKI-1 renal; T-47D breast.
What all share (assay): NCI tumour cell line growth inhibition, 48 h

Regarding `COc1cccc2c1OC(c1ccc(C#N)cc1)C([N+](=O)[O-])=C2` (stereo not given), the TGI was 4.13 µM with PC-3 prostate; 8.3 µM with HOP-62 NSCLC; 3.49 µM in the assay with ACHN renal; 5.62 µM in the assay with HL-60(TB) leukemia; 4.92 µM in the assay on NCI-H460 lung; 3.33 µM with UACC-62 melanoma. The TGI in the assay on M14 melanoma amounted to 3.18 µM; with HOP-92 NSCLC, 3.27 µM; in the assay with SK-MEL-2 melanoma, 4.38 µM; in the assay on LOX IMVI melanoma it was 3.38 µM; in the assay on RXF 393 renal, 3.12 µM; with 786-0 renal it was 11.9 µM. Besides, the TGI stood at 2.68 µM with UACC-257 melanoma, 4.03 µM with A498 renal and 4.89 µM with CAKI-1 renal.

In the case of `CC(SC(=S)N1CCOCC1)C(=O)Nc1nnc(-c2ccccc2)o1` (stereo not given), the TGI with PC-3 prostate is above 100 µM; with HOP-62 NSCLC it was above 100 µM; in the assay with ACHN renal, above 100 µM; in the assay on HL-60(TB) leukemia, 20.5 µM; with NCI-H460 lung, above 100 µM; in the assay on T-47D breast, above 100 µM. Also, the TGI in the assay on M14 melanoma, in the assay with SK-MEL-2 melanoma, in the assay on LOX IMVI melanoma, with RXF 393 renal, in the assay on 786-0 renal and with UACC-257 melanoma was above 100 µM each time. Besides, the TGI in the assay with A498 renal and in the assay with CAKI-1 renal was above 100 µM throughout.

Regarding `O=C(CSc1nc2[nH]ncc2c(=O)[nH]1)c1ccc(Cl)cc1`, the TGI in the assay with PC-3 prostate, in the assay with HOP-62 NSCLC, in the assay on ACHN renal, in the assay with NCI-H460 lung, with UACC-62 melanoma and with T-47D breast was above 100 µM each time. Also, the TGI in the assay on M14 melanoma, in the assay on SK-MEL-2 melanoma, with LOX IMVI melanoma, in the assay with RXF 393 renal, in the assay on 786-0 renal and in the assay on UACC-257 melanoma was above 100 µM in each case. In the assay with CAKI-1 renal, the TGI was above 100 µM.

In the case of `COc1ccc2cc(C(=O)O)ccc2c1OC`, the TGI in the assay with PC-3 prostate, in the assay with HOP-62 NSCLC, in the assay on ACHN renal, with HL-60(TB) leukemia, in the assay with NCI-H460 lung and in the assay with UACC-62 melanoma was above 100 µM each time. In addition, the TGI in the assay with T-47D breast, in the assay with M14 melanoma, in the assay with SK-MEL-2 melanoma, with 786-0 renal, in the assay with UACC-257 melanoma and in the assay with A498 renal was above 100 µM each time. The molecule further returned a TGI in the assay on CAKI-1 renal above 100 µM.

`C=C(C)[C@@]1(OC(=O)c2cc([N+](=O)[O-])cc([N+](=O)[O-])c2)C[C@@H]2CCCC[C@@H]21`: the TGI in the assay on PC-3 prostate, in the assay on HOP-62 NSCLC, in the assay with ACHN renal, with HL-60(TB) leukemia, in the assay with NCI-H460 lung and with UACC-62 melanoma was above 100 µM throughout. For the same molecule, the TGI in the assay with T-47D breast, in the assay on M14 melanoma, with SK-MEL-2 melanoma, with LOX IMVI melanoma, in the assay with 786-0 renal and in the assay with UACC-257 melanoma was above 100 µM in each case. In the assay with CAKI-1 renal, the TGI is above 100 µM.

Consider `COc1ccc(C(CC(=O)C(C)(C)CN2CCCCC2)SCCS(=O)(=O)O)cc1` (stereo not given), for which the TGI was above 100 µM in the assay with PC-3 prostate; above 100 µM in the assay with HOP-62 NSCLC; above 100 µM in the assay with ACHN renal; 67 µM with HL-60(TB) leukemia; above 100 µM with NCI-H460 lung; above 100 µM in the assay on UACC-62 melanoma. Besides, the TGI in the assay on M14 melanoma was 57.2 µM; in the assay with HOP-92 NSCLC, 47.2 µM; with SK-MEL-2 melanoma, above 100 µM; in the assay with RXF 393 renal, above 100 µM; in the assay on 786-0 renal it was 60.7 µM; in the assay with UACC-257 melanoma, above 100 µM. For the same molecule, the TGI in the assay with A498 renal is 74.3 µM; with CAKI-1 renal, above 100 µM.

With `CC1Oc2c(c(=O)oc3ccccc23)[C@@]1(C)CC1C[C@H](C)C(=O)O1` (stereo not given in full), the TGI was above 100 µM in the assay with PC-3 prostate; above 100 µM in the assay on HOP-62 NSCLC; 65.8 µM in the assay on ACHN renal; above 100 µM in the assay on HL-60(TB) leukemia; 42.4 µM with UACC-62 melanoma; above 100 µM in the assay on T-47D breast. The TGI is 39.6 µM in the assay with M14 melanoma; above 100 µM in the assay on SK-MEL-2 melanoma; above 100 µM in the assay with LOX IMVI melanoma; 33.4 µM in the assay on 786-0 renal; above 100 µM in the assay with UACC-257 melanoma; above 100 µM in the assay with A498 renal. The molecule further showed a TGI in the assay on CAKI-1 renal of 38.1 µM.

As to `CC(=O)Nc1ccc2[nH]c(-c3cccc(Cl)c3)cc(=O)c2c1`, the TGI was above 100 µM in the assay with PC-3 prostate; above 100 µM in the assay with HOP-62 NSCLC; above 100 µM with ACHN renal; above 100 µM with HL-60(TB) leukemia; 84.4 µM with UACC-62 melanoma; above 100 µM in the assay with M14 melanoma. Besides, the TGI in the assay with HOP-92 NSCLC, in the assay on 786-0 renal and in the assay with UACC-257 melanoma was above 100 µM each time.

As for `CC(C)=NNC=N/C(C#N)=C(\N)C#N`, the TGI in the assay on PC-3 prostate, with HOP-62 NSCLC, in the assay with ACHN renal, in the assay on HL-60(TB) leukemia, with NCI-H460 lung and in the assay on UACC-62 melanoma was above 100 µM throughout. Also, the TGI in the assay on M14 melanoma, with SK-MEL-2 melanoma, in the assay on RXF 393 renal, in the assay on 786-0 renal, with UACC-257 melanoma and in the assay with CAKI-1 renal was above 100 µM throughout.

Turning to `O=C(N=Nc1cccc(Cl)c1)NNc1cccc(Cl)c1`, the TGI was found to be 36 µM with PC-3 prostate; 22.2 µM with HOP-62 NSCLC; 50.8 µM in the assay on ACHN renal; 41.7 µM in the assay on HL-60(TB) leukemia; 34.2 µM with NCI-H460 lung; 24.1 µM in the assay with UACC-62 melanoma. In addition, the TGI in the assay with T-47D breast was above 100 µM; in the assay with M14 melanoma, 32.2 µM; in the assay with SK-MEL-2 melanoma, 24.6 µM; in the assay on LOX IMVI melanoma, 26.8 µM; in the assay with 786-0 renal it was 28.4 µM; with UACC-257 melanoma, 54.3 µM. The values for the TGI in the assay with A498 renal and in the assay on CAKI-1 renal were 44.9 µM and 91.1 µM, respectively.
